System: pale smartweed (Po)
Assay: Test Example 6: crop plant selectivity by upland field soil treatment (soybean), herbicidal effects
Type: in vivo
Set-up: scale not given here
Conditions: dose 6.3 g ai/10a, 21st day after application
Procedure: (§1) (Test on Crop Plant Selectivity by Upland Field Soil Treatment)
(§2) In a plastic pot (surface area: 600 cm^2) filled with sand, soybean (Gl), Diaitaria ciliaris (Di), green foxtail (Se), Johnsongrass (So), pale smartweed (Po), slender amaranth (Am), common lambsquarters (Ch) and China jute (Ab) were sown and covered with soil. […] The plants were then cultured in a green house, and the evaluation of the herbicidal effects and phytotoxicity was conducted on the 21st day after the application in accordance with the standards as identified in Table 47. Symbol—represents “not tested”.

Row | Structure (SMILES) | Herbicidal effects Po
1 | CSc1cc(-c2ccc(C(F)(F)F)n(C)c2=O)c(F)cc1Cl [Compound No. 1-87, 3-(4-chloro-2-fluoro-5-methylthiophenyl)-1-methyl-6-trifluoromethyl-2(1H)-pyridone] | 5

System: wheat (Tr)
Assay: Test Example 5: crop plant selectivity by upland field soil treatment (wheat), phytotoxicity
Type: in vivo
Set-up: scale not given here
Conditions: dose 6.3 g ai/10a, 21st day after application
Procedure: as §1
(§3) In a plastic pot (surface area: 600 cm^2) filled with sand, wheat (Tr), Diaitaria ciliaris (Di), green foxtail (Se), pale smartweed (Po), slender amaranth (Am), common lambsquarters (Ch) and China jute (Ab) were sown and covered with soil. […] The plants were then cultured in a green house, and the evaluation of the herbicidal effects and phytotoxicity was conducted on the 21st day after the application in accordance with the standards as identified in Table 47. Symbol—represents “not tested”.

Row | Structure (SMILES) | Phytotoxicity Tr
2 | CSc1cc(-c2ccc(C(F)(F)F)n(C)c2=O)c(F)cc1Cl [Compound No. 1-87, 3-(4-chloro-2-fluoro-5-methylthiophenyl)-1-methyl-6-trifluoromethyl-2(1H)-pyridone] | 1

System: green foxtail (Se)
Assay: Test Example 4: crop plant selectivity by upland field soil treatment (cotton), herbicidal effects
Type: in vivo
Set-up: scale not given here
Conditions: dose 6.3 g ai/10 a, evaluated 21st day after application
Procedure: as §1
(§4) In a plastic pot (surface area: 600 cm^2) filled with sand, cotton (Go), Diaitaria ciliaris (Di), green foxtail (Se), pale smartweed (Po), slender amaranth (Am), common lambsquarters (Ch) and China jute (Ab) were sown and covered with soil. […] The plants were then cultured in a green house, and the evaluation of the herbicidal effects and phytotoxicity was conducted on the 21st day after the application in accordance with the standards as identified in Table 47. Symbol—represents “not tested”.

Row | Structure (SMILES) | Herbicidal effects Se
3 | CSc1cc(-c2ccc(C(F)(F)F)n(C)c2=O)c(F)cc1Cl [Compound No. 1-87, 3-(4-chloro-2-fluoro-5-methylthiophenyl)-1-methyl-6-trifluoromethyl-2(1H)-pyridone] | 5

System: common lambsquarters (Ch)
Assay: as above
Type: in vivo
Set-up: scale not given here
Conditions: dose 6.3 g ai/10 a, evaluated 21st day after application
Procedure: as §1, §4

Row | Structure (SMILES) | Herbicidal effects Ch
4 | CSc1cc(-c2ccc(C(F)(F)F)n(C)c2=O)c(F)cc1Cl [Compound No. 1-87, 3-(4-chloro-2-fluoro-5-methylthiophenyl)-1-methyl-6-trifluoromethyl-2(1H)-pyridone] | 5

System: China jute (Ab)
Assay: as above
Type: in vivo
Set-up: scale not given here
Conditions: dose 6.3 g ai/10 a, evaluated 21st day after application
Procedure: as §1, §4

Row | Structure (SMILES) | Herbicidal effects Ab
5 | CSc1cc(-c2ccc(C(F)(F)F)n(C)c2=O)c(F)cc1Cl [Compound No. 1-87, 3-(4-chloro-2-fluoro-5-methylthiophenyl)-1-methyl-6-trifluoromethyl-2(1H)-pyridone] | 5

System: slender amaranth (Am)
Assay: as above
Type: in vivo
Set-up: scale not given here
Conditions: dose 6.3 g ai/10 a, evaluated 21st day after application
Procedure: as §1, §4

Row | Structure (SMILES) | Herbicidal effects Am
6 | CSc1cc(-c2ccc(C(F)(F)F)n(C)c2=O)c(F)cc1Cl [Compound No. 1-87, 3-(4-chloro-2-fluoro-5-methylthiophenyl)-1-methyl-6-trifluoromethyl-2(1H)-pyridone] | 5

System: pale smartweed (Po)
Assay: as above
Type: in vivo
Set-up: scale not given here
Conditions: dose 6.3 g ai/10 a, evaluated 21st day after application
Procedure: as §1, §4

Row | Structure (SMILES) | Herbicidal effects Po
7 | CSc1cc(-c2ccc(C(F)(F)F)n(C)c2=O)c(F)cc1Cl [Compound No. 1-87, 3-(4-chloro-2-fluoro-5-methylthiophenyl)-1-methyl-6-trifluoromethyl-2(1H)-pyridone] | 5

System: soybean (Gl)
Assay: Test Example 6: crop plant selectivity by upland field soil treatment (soybean), phytotoxicity
Type: in vivo
Set-up: scale not given here
Conditions: dose 6.3 g ai/10a, 21st day after application
Procedure: as §1, §2

Row | Structure (SMILES) | Phytotoxicity Gl
8 | CSc1cc(-c2ccc(C(F)(F)F)n(C)c2=O)c(F)cc1Cl [Compound No. 1-87, 3-(4-chloro-2-fluoro-5-methylthiophenyl)-1-methyl-6-trifluoromethyl-2(1H)-pyridone] | 1

System: common lambsquarters (Ch)
Assay: Test Example 3: herbicidal effects by upland field foliage treatment
Type: in vivo
Set-up: scale not given here
Conditions: 100 g of the active ingredient per 10 ares, evaluated on the 14th day after treatment
Summary of the method: (§5)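 Weeds sown in sand-filled pots and grown 2 weeks in a greenhouse before foliage treatment. Plants then kept in the greenhouse; herbicidal effect scored on day 14 after treatment against a graded standard scale.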

Row | Structure (SMILES) | Herbicidal effects Ch
9 | CSc1cc(-c2ccc(C(F)(F)F)n(C)c2=O)c(F)cc1Cl [Compound No. 1-87, 3-(4-chloro-2-fluoro-5-methylthiophenyl)-1-methyl-6-trifluoromethyl-2(1H)-pyridone] | 5

System: slender amaranth (Am)
Assay: as above
Type: in vivo
Set-up: scale not given here
Conditions: 100 g of the active ingredient per 10 ares, evaluated on the 14th day after treatment
Summary of the method: as §5

Row | Structure (SMILES) | Herbicidal effects Am
10 | CSc1cc(-c2ccc(C(F)(F)F)n(C)c2=O)c(F)cc1Cl [Compound No. 1-87, 3-(4-chloro-2-fluoro-5-methylthiophenyl)-1-methyl-6-trifluoromethyl-2(1H)-pyridone] | 5

System: Diaitaria ciliaris (Di)
Assay: as above
Type: in vivo
Set-up: scale not given here
Conditions: 100 g of the active ingredient per 10 ares, evaluated on the 14th day after treatment
Summary of the method: as §5

Row | Structure (SMILES) | Herbicidal effects Di
11 | CSc1cc(-c2ccc(C(F)(F)F)n(C)c2=O)c(F)cc1Cl [Compound No. 1-87, 3-(4-chloro-2-fluoro-5-methylthiophenyl)-1-methyl-6-trifluoromethyl-2(1H)-pyridone] | 5

System: rice flatsedge (Ci)
Assay: as above
Type: in vivo
Set-up: scale not given here
Conditions: 100 g of the active ingredient per 10 ares, evaluated on the 14th day after treatment
Summary of the method: as §5

Row | Structure (SMILES) | Herbicidal effects Ci
12 | CSc1cc(-c2ccc(C(F)(F)F)n(C)c2=O)c(F)cc1Cl [Compound No. 1-87, 3-(4-chloro-2-fluoro-5-methylthiophenyl)-1-methyl-6-trifluoromethyl-2(1H)-pyridone] | 5

System: pale smartweed (Po)
Assay: as above
Type: in vivo
Set-up: scale not given here
Conditions: 100 g of the active ingredient per 10 ares, evaluated on the 14th day after treatment
Summary of the method: as §5

Row | Structure (SMILES) | Herbicidal effects Po
13 | CSc1cc(-c2ccc(C(F)(F)F)n(C)c2=O)c(F)cc1Cl [Compound No. 1-87, 3-(4-chloro-2-fluoro-5-methylthiophenyl)-1-methyl-6-trifluoromethyl-2(1H)-pyridone] | 5

System: barnyardgrass (Ec)
Assay: as above
Type: in vivo
Set-up: scale not given here
Conditions: 100 g of the active ingredient per 10 ares, evaluated on the 14th day after treatment
Summary of the method: as §5

Row | Structure (SMILES) | Herbicidal effects Ec
14 | CSc1cc(-c2ccc(C(F)(F)F)n(C)c2=O)c(F)cc1Cl [Compound No. 1-87, 3-(4-chloro-2-fluoro-5-methylthiophenyl)-1-methyl-6-trifluoromethyl-2(1H)-pyridone] | 5

System: green foxtail (Se)
Assay: Test Example 5: crop plant selectivity by upland field soil treatment (wheat), herbicidal effects
Type: in vivo
Set-up: scale not given here
Conditions: dose 6.3 g ai/10a, 21st day after application
Procedure: as §1, §3

Row | Structure (SMILES) | Herbicidal effects Se
15 | CSc1cc(-c2ccc(C(F)(F)F)n(C)c2=O)c(F)cc1Cl [Compound No. 1-87, 3-(4-chloro-2-fluoro-5-methylthiophenyl)-1-methyl-6-trifluoromethyl-2(1H)-pyridone] | 5

System: common lambsquarters (Ch)
Assay: as above
Type: in vivo
Set-up: scale not given here
Conditions: dose 6.3 g ai/10a, 21st day after application
Procedure: as §1, §3

Row | Structure (SMILES) | Herbicidal effects Ch
16 | CSc1cc(-c2ccc(C(F)(F)F)n(C)c2=O)c(F)cc1Cl [Compound No. 1-87, 3-(4-chloro-2-fluoro-5-methylthiophenyl)-1-methyl-6-trifluoromethyl-2(1H)-pyridone] | 5

System: China jute (Ab)
Assay: as above
Type: in vivo
Set-up: scale not given here
Conditions: dose 6.3 g ai/10a, 21st day after application
Procedure: as §1, §3

Row | Structure (SMILES) | Herbicidal effects Ab
17 | CSc1cc(-c2ccc(C(F)(F)F)n(C)c2=O)c(F)cc1Cl [Compound No. 1-87, 3-(4-chloro-2-fluoro-5-methylthiophenyl)-1-methyl-6-trifluoromethyl-2(1H)-pyridone] | 5

System: slender amaranth (Am)
Assay: as above
Type: in vivo
Set-up: scale not given here
Conditions: dose 6.3 g ai/10a, 21st day after application
Procedure: as §1, §3

Row | Structure (SMILES) | Herbicidal effects Am
18 | CSc1cc(-c2ccc(C(F)(F)F)n(C)c2=O)c(F)cc1Cl [Compound No. 1-87, 3-(4-chloro-2-fluoro-5-methylthiophenyl)-1-methyl-6-trifluoromethyl-2(1H)-pyridone] | 5

System: pale smartweed (Po)
Assay: as above
Type: in vivo
Set-up: scale not given here
Conditions: dose 6.3 g ai/10a, 21st day after application
Procedure: as §1, §3

Row | Structure (SMILES) | Herbicidal effects Po
19 | CSc1cc(-c2ccc(C(F)(F)F)n(C)c2=O)c(F)cc1Cl [Compound No. 1-87, 3-(4-chloro-2-fluoro-5-methylthiophenyl)-1-methyl-6-trifluoromethyl-2(1H)-pyridone] | 5

System: cotton (Go)
Assay: Test Example 4: crop plant selectivity by upland field soil treatment (cotton), phytotoxicity
Type: in vivo
Set-up: scale not given here
Conditions: dose 6.3 g ai/10 a, evaluated 21st day after application
Procedure: as §1, §4

Row | Structure (SMILES) | Phytotoxicity Go
20 | CSc1cc(-c2ccc(C(F)(F)F)n(C)c2=O)c(F)cc1Cl [Compound No. 1-87, 3-(4-chloro-2-fluoro-5-methylthiophenyl)-1-methyl-6-trifluoromethyl-2(1H)-pyridone] | 1

Source: patent publication US6472348B1, “Pyridone derivatives and herbicides” (Kumiai Chemical Industry Co., Ltd., priority 1996, dated 2002)
